Results on 43 compounds are retold here after patent US9018383B2, “Acylamino-substituted cyclic carboxylic acid derivatives and their use as pharmaceuticals” (Sanofi, priority 2009, dated 2015).

In this assay the target is human Edg-2 receptor (Homo sapiens, UniProt Q92633). Nature of the assay: Determination of Edg-2 receptor inhibition by FLIPR measurements (LPA-mediated calcium liberation). Format: cell-based. To be noted: CHO cells overexpressing human Edg-2 receptor, LPA 100 nM, fluo-4 calcium fluorescence; read-out: Inhibitory concentrations IC50 for inhibition of the Edg-2 receptor. Put shortly: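 CHO cells stably overexpressing human Edg-2, loaded with fluo-4 AM, were pre-incubated ~5 min with compound (≤0.3% DMSO), then stimulated with 100 nM LPA 18:1 in HBSS/HEPES/probenecid, pH 7.5. Peak calcium fluorescence over ~3 min, baseline-corrected, versus DMSO gave % inhibition; IC50 from triplicates.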
Chain of human Edg-2 receptor (Q92633 whole entry): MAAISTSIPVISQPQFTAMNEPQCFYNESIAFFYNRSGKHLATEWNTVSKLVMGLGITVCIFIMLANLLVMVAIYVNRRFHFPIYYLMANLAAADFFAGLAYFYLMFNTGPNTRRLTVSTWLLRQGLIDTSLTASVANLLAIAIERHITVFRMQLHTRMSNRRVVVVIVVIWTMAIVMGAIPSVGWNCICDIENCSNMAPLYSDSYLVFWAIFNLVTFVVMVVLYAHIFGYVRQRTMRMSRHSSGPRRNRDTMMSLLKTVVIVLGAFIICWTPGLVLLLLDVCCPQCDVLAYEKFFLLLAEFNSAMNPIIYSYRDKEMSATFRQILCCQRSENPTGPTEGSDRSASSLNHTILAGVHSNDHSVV

For `CCc1sc(C(=O)N[C@]2(C(=O)O)CC[C@@H](CC)CC2)cc1OCCc1cccc(Cl)c1` [Example 440, trans-1-({4-[2-(3-Chloro-phenyl)-ethoxy]-5-ethyl-thiophene-2-carbonyl}-amino)-4-ethyl-cyclohexanecarboxylic acid], the IC50 fell in the range of 0.1 to 1 µM.

Take `COc1ccc(-c2cc(C(=O)N[C@]3(C(=O)O)CC[C@H](C(F)(F)F)CC3)cc(F)c2OC)cc1Cl` [Example 448, Cis-1-[(3′-Chloro-5-fluoro-6,4′-dimethoxy-biphenyl-3-carbonyl)-amino]-4-trifluoromethyl-cyclohexanecarboxylic acid]: the IC50 was below 0.1 µM.

Take `COc1ccc(C(=O)NC2(C(=O)O)CCCCCC2)cc1OCCc1ccccc1F` [Example 13]: the IC50 is below 0.1 µM.

`CC[C@H]1CC[C@@](NC(=O)c2cnc(OC)c(-c3cc(F)c(F)c(F)c3)c2)(C(=O)O)CC1` [Example 312]: the IC50 was 0.1 to 1 µM.

As for `COc1ccc(C(=O)NC2(C(=O)O)CCCOCC2)cc1OCCc1cccc(C)c1` (stereo not shown) [Example 25, 4-[4-Methoxy-3-(2-m-tolyl-ethoxy)-benzoylamino]-oxepane-4-carboxylic acid], the IC50 fell in the range of 1 to 30 µM.

Take `COc1ccc(C(=O)NC2(C(=O)O)CCCCCC2)cc1-c1cccc(C2COC2)c1` [Example 457, 1-[(6-Methoxy-3′-oxetan-3-yl-biphenyl-3-carbonyl)-amino]-cycloheptanecarboxylic acid]: the IC50 fell in the range of 0.1 to 1 µM.

On to `CC[C@H]1CC[C@@](NC(=O)c2cnc(OC)c(OCCc3cccc(OC(F)(F)F)c3)c2)(C(=O)O)CC1` [Example 398, trans-4-Ethyl-1-({6-methoxy-5-[2-(3-trifluoromethoxy-phenyl)-ethoxy]-pyridine-3-carbonyl}-amino)-cyclohexanecarboxylic acid], for which the IC50 was below 0.1 µM.

With `C=CC1CC1(NC(=O)c1ccc(OC)c(OCCc2cccc(C)c2)c1)C(=O)O` (stereo not shown) [Example 40], the IC50 was 0.1 to 1 µM.

With `CC[C@H]1CC[C@@](NC(=O)c2ccc(OC)c(-c3cccc(OC(F)(F)F)c3)c2)(C(=O)O)CC1` [Example 328], the IC50 was in the range of 0.1 to 1 µM.

For `CC[C@H]1CC[C@@](NC(=O)c2ccc(OC)c(OCCc3ccccc3)c2)(C(=O)O)CC1` [Example 205], the IC50 is below 0.1 µM.

For the compound `COCCOc1ccc(C(=O)N[C@]2(C(=O)O)CC[C@H](C)CC2)cc1OCCc1cccc(C)c1` [Example 118, cis-1-[4-(2-Methoxy-ethoxy)-3-(2-m-tolyl-ethoxy)-benzoylamino]-4-methyl-cyclohexane-carboxylic acid], the IC50 fell in the range of 1 to 30 µM.

Turning to `CC[C@H]1CC[C@](NC(=O)c2ccc(OC)c(OCCc3cccc(Cl)c3)c2)(C(=O)O)CC1` [Example 208], the IC50 was below 0.1 µM.

Turning to `CC[C@H]1CC[C@](NC(=O)c2cnc(OC)c(-c3cccc(Cl)c3Cl)c2)(C(=O)O)CC1` [Example 300], the IC50 is below 0.1 µM.

For `Cc1cccc(CCOc2cc(C(=O)NC3(C(=O)O)CCCCCC3)cc3c2OC(F)(F)O3)c1` [Example 455, 1-{[2,2-Difluoro-7-(2-m-tolyl-ethoxy)-benzo[1,3]dioxole-5-carbonyl]-amino}-cycloheptanecarboxylic acid], the IC50 is below 0.1 µM.

For the compound `COc1c(F)cc(C(=O)NC2(C(=O)O)CCCCCC2)cc1OCCc1cccc(CCO)c1` [Example 393, 1-(3-Fluoro-5-{2-[3-(2-hydroxy-ethyl)-phenyl]-ethoxy}-4-methoxy-benzoylamino)-cycloheptanecarboxylic acid], the IC50 was below 0.1 µM.

Regarding `COc1ccc(C(=O)NC2(C(=O)O)CCCCCC2)c(F)c1OCCc1cccc(C)c1` [Example 69, 1-[2-Fluoro-4-methoxy-3-(2-m-tolyl-ethoxy)-benzoylamino]-cycloheptanecarboxylic acid], the IC50 was in the range of 0.1 to 1 µM.

Take `CC[C@H]1CC[C@](NC(=O)c2cc(F)c(OC)c(-c3cnc(OC)c(Cl)c3)c2)(C(=O)O)CC1` [Example 450, 1-[3-(5-Chloro-6-methoxy-pyridin-3-yl)-5-fluoro-4-methoxy-benzoylamino]-4-ethyl-cyclohexanecarboxylic acid]: the IC50 is below 0.1 µM.

In the case of `CC[C@H]1CC[C@](NC(=O)c2cnc(OC)c(-c3cccc(C(F)(F)F)c3F)c2)(C(=O)O)CC1` [Example 304], the IC50 was below 0.1 µM.

Consider `CC[C@H]1CC[C@](NC(=O)c2cnc(OC)c(-c3cc(Cl)cc(C(F)(F)F)c3)c2)(C(=O)O)CC1` [Example 302], for which the IC50 was below 0.1 µM.

`COc1ccc(C(=O)NC2(C(=O)O)CCCCCC2)cc1OCC1(c2ccccc2)COC1` [Example 22]: the IC50 is below 0.1 µM.

For the compound `CC[C@H]1CC[C@](NC(=O)c2cnc(OC)c(-c3ccc(F)cc3)c2)(C(=O)O)CC1` [Example 407], the IC50 was below 0.1 µM.

As for `COc1ncc(C(=O)NC2(C(=O)O)CCCCCC2)cc1-c1cccc(C(C)C)c1` [Example 95], the IC50 was in the range of 0.1 to 1 µM.

Take `COc1ncc(C(=O)NC2(C(=O)O)CCCCCC2)cc1OCCc1cccc(Cl)c1` [Example 401, 1-({5-[2-(3-Chloro-phenyl)-ethoxy]-6-methoxy-pyridine-3-carbonyl}-amino)-cycloheptanecarboxylic acid]: the IC50 is below 0.1 µM.

For `Cc1cccc(CCOc2cc(C(=O)N[C@]3(C(=O)O)CC[C@H](C)CC3)ccc2OCCO)c1` [Example 123, cis-1-[4-(2-Hydroxy-ethoxy)-3-(2-m-tolyl-ethoxy)-benzoylamino]-4-methyl-cyclohexanecarboxylic acid], the IC50 is below 0.1 µM.

Regarding `CC[C@H]1CC[C@@](NC(=O)c2ccc(C=O)c(-c3cccc(C(F)(F)F)c3)c2)(C(=O)O)CC1` [Example 429, trans-4-Ethyl-1-[(6-formyl-3′-trifluoromethyl-biphenyl-3-carbonyl)-amino]-cyclohexanecarboxylic acid], the IC50 was 0.1 to 1 µM.

As to `O=C(NC1(C(=O)O)CCCCCC1)c1ccc(OCCO)c(OCCc2ccccc2)c1` [Example 422, 1-[4-(2-Hydroxy-ethoxy)-3-phenethyloxy-benzoylamino]cycloheptanecarboxylic acid], the IC50 was in the range of 0.1 to 1 µM.

For `O=C(NC1(C(=O)O)CCCCCC1)c1ccc(OCCO)c(OCCc2cccc(Cl)c2)c1` [Example 121, 1-[3-[2-(3-Chloro-phenyl)-ethoxy]-4-(2-hydroxy-ethoxy)-benzoylamino]-cycloheptane-carboxylic acid], the IC50 lay within 0.1 to 1 µM.

On to `COc1ncc(C(=O)N[C@]2(C(=O)O)CC[C@H](C(F)(F)F)CC2)cc1OCCc1cccc(C)c1` [Example 402, cis-1-{[6-Methoxy-5-(2-m-tolyl-ethoxy)-pyridine-3-carbonyl]-amino}-4-trifluoromethyl-cyclohexanecarboxylic acid], for which the IC50 was below 0.1 µM.

With `CC[C@H]1CC[C@](NC(=O)c2ccc(CCS(C)(=O)=O)c(OCCc3cccc(C)c3)c2)(C(=O)O)CC1` [Example 462, Cis-4-Ethyl-1-[4-(2-methanesulfonyl-ethyl)-3-(2-m-tolyl-ethoxy)-benzoylamino]-cyclohexanecarboxylic acid], the IC50 fell in the range of 0.1 to 1 µM.

`COc1ncc(C(=O)NC2(C(=O)O)CCCCCC2)cc1-c1cc(Cl)cc(C(F)(F)F)c1` [Example 99]: the IC50 is below 0.1 µM.

Regarding `CC[C@H]1CC[C@](NC(=O)c2cnc(OCCO)c(-c3cccc(C(F)(F)F)c3)c2)(C(=O)O)CC1` [Example 413, 4-Ethyl-1-{[6-(2-hydroxy-ethoxy)-5-(3-trifluoromethyl-phenyl)-pyridine-3-carbonyl]-amino}-cyclohexanecarboxylic acid], the IC50 is below 0.1 µM.

In the case of `COc1ncc(C(=O)N[C@]2(C(=O)O)CC[C@H](C)CC2)cc1OCCc1ccccc1` [Example 400, cis-1-{[6-Methoxy-5-(2-phenyl-ethoxy)-pyridine-3-carbonyl]-amino}-4-methyl-cyclohexanecarboxylic acid], the IC50 is below 0.1 µM.

As for `COc1ccc(C(=O)N[C@]2(C(=O)O)CC[C@H](C)CC2)cc1OCCc1cccc(CCO)c1` [Example 109, cis-1-(3-{2-[3-(2-Hydroxy-ethyl)-phenyl]-ethoxy}-4-methoxy-benzoylamino)-4-methyl-cyclohexanecarboxylic acid], the IC50 is below 0.1 µM.

On to `CC[C@H]1CC[C@](NC(=O)c2cnc(OC)c(-c3cccc(F)c3)c2)(C(=O)O)CC1` [Example 409], for which the IC50 is below 0.1 µM.

`COc1ccc(C(=O)NC2(C(=O)O)CCCCC2C)cc1OCCc1cccc(C)c1` (stereo not shown) [Example 48]: the IC50 lay in the range of 1 to 30 µM.

As to `COc1ccc(C(=O)NC2(C(=O)O)CCCC(C)CC2)cc1OCCc1cccc(C)c1` (stereo not shown) [Example 46], the IC50 is below 0.1 µM.

Consider `Cc1cccc(CCOc2cc(C(=O)NC3(C(=O)O)CCCCCC3)ccc2Cl)c1` [Example 64, 1-[4-Chloro-3-(2-m-tolyl-ethoxy)-benzoylamino]-cycloheptanecarboxylic acid], for which the IC50 was in the range of 0.1 to 1 µM.

Regarding `CC[C@H]1CC[C@](NC(=O)c2cnc(OC)c(-c3ccc(F)c(F)c3)c2)(C(=O)O)CC1` [Example 359, cis-1-{[5-(3,4-Difluoro-phenyl)-6-methoxy-pyridine-3-carbonyl]-amino}-4-ethyl-cyclohexanecarboxylic acid], the IC50 is below 0.1 µM.

Regarding `COc1ccc(C(=O)NC2(C(=O)O)CCCCCC2)cc1OCCc1c(F)cccc1Cl` [Example 16], the IC50 is below 0.1 µM.

`CC[C@H]1CC[C@](NC(=O)c2cnc(OC)c(-c3cccc(C(F)(F)F)c3)c2)(C(=O)O)CC1` [Example 303]: the IC50 is below 0.1 µM.

With `COc1ccc(C(=O)NC2(C(=O)O)CCCCCC2)cc1OCCc1cccc(F)c1` [Example 365], the IC50 was 0.1 to 1 µM.

Consider `COc1ncc(C(=O)N[C@]2(C(=O)O)CC[C@H](C(F)(F)F)CC2)cc1-c1cccc(OC(F)(F)F)c1` [Example 379], for which the IC50 was below 0.1 µM.

On to `COc1ncc(C(=O)N[C@]2(C(=O)O)CC[C@@H](C)CC2)cc1OCCc1cc(OC(F)(F)F)ccc1F` [Example 82, trans-1-({5-[2-(2-Fluoro-5-trifluoromethoxy-phenyl)-ethoxy]-6-methoxy-pyridine-3-carbonyl}-amino)-4-methyl-cyclohexanecarboxylic acid], for which the IC50 is below 0.1 µM.
